The source of these data is patent publication US6573260B1, “Cycloalkyl-substituted aminomethylpyrrolidine derivatives” (Daiichi Pharmaceutical Co., Ltd., priority 1998, dated 2003).

In brackets after ≈: the same amount, converted by molar mass. Where two headings read alike, the source gives them in different places.

Common to all, as to assay: antibacterial activity (MIC), standard method of the Japan Society of Chemotherapy
Assay type in all cases: cell-based

Assay [1] has as its system S. flexneri, 2A 5503. The procedure: (§1) The antibacterial activity of each compound of the present invention was measured in accordance with the standard method specified by the Japan Society of Chemotherapy, with the results shown in the following Table 2 as MIC values (μg/ml). In this connection, MIC values of levofloxacin (LVFX) and ciprofloxacin (CPEX) are also shown for the sake of comparison with the MIC values of the compounds of the present invention.

The test system of assay [2] is K. pneumoniae TYPE 1. The procedure: as §1
Assay [3] concerns PS. aeruginosa, 32121. The procedure: as §1
The subject of assay [4] is S. aureus, 870307. The procedure:
as §1

In assay [5] the test system is S. epidermidis, 56500. The procedure:
as §1

For assay [6], the system named is S. aureus, FDA 209P. The procedure: as §1
For assay [7], the system named is Ps. aeruginosa, 32104. The procedure: as §1
The subject of assay [8] is Ser. marcescens, 10100. The procedure: as §1
Assay [9] concerns X. maltophilia, IID 1275. The procedure: as §1
For assay [10], the system named is E. faecalis, ATCC 19433. The procedure: as §1
Assay [11] relates to Str. pyogenes, G-36. The procedure: as §1
Assay [12] deals with Pr. vulgaris, 08601. The procedure: as §1
Assay [13] deals with Str. pneumoniae, J24. The procedure: as §1
In assay [14] the test system is E. coli, NIHJ. The procedure:
as §1

Where [15] appears, read: Shigella flexneri, 2A5503, read-out: MIC.
[16] abbreviates: Klebsiella pneumoniae, TYPE1, read-out: MIC.
[17] abbreviates: Pseudomonas aeruginosa, read-out: MIC.
Where [18] appears, read: Staphylococcus aureus, read-out: MIC.
Setting [19] is: Staphylococcus epidermidis, read-out: MIC.
Setting [20] is: Staphylococcus aureus, FDA209P, read-out: MIC.
[21] abbreviates: Serratia marcescens, read-out: MIC.
The mark [22] stands for this setting: Stenotrophomonas maltophilia, IID1275, read-out: MIC.
[23] abbreviates: Enterococcus faecalis, ATCC19433, read-out: MIC.
Setting [24] is: Streptococcus pyogenes, G36, read-out: MIC.
[25] abbreviates: Proteus vulgaris, read-out: MIC.
[26] abbreviates: Streptococcus pneumoniae, read-out: MIC.
[27] abbreviates: Escherichia coli, read-out: MIC.

One may read the MIC as the least concentration at which growth counts as inhibited.

In the case of `O=C(O)c1cn(C2CC2)c2cc(N3CCNCC3)c(F)cc2c1=O` [CPFX, ciprofloxacin, reference compound], the MIC in assay [1] (setting [15]) stood at 0.006 µg/mL (≈ 0.0181 µM); in assay [2] (setting [16]), 0.025 µg/mL (≈ 0.0754 µM); in [3] (setting [17]), 0.025 µg/mL (≈ 0.0754 µM); in assay [4] (setting [18]), 3.13 µg/mL (≈ 9.45 µM); in [5] (setting [19]) it was 0.2 µg/mL (≈ 0.604 µM); in assay [6] (setting [20]), 0.1 µg/mL (≈ 0.302 µM). Besides, the MIC in assay [7] (setting [17]) was 0.05 µg/mL (≈ 0.151 µM); in assay [8] (setting [21]), 0.025 µg/mL (≈ 0.0754 µM); in assay [9] (setting [22]) it was 0.78 µg/mL (≈ 2.35 µM); in [10] (setting [23]), 0.78 µg/mL (≈ 2.35 µM); in [11] (setting [24]) it was 1.56 µg/mL (≈ 4.71 µM); in assay [12] (setting [25]), ≤ 0.003 µg/mL. Further, the MIC in assay [13] (setting [26]) is 0.1 µg/mL (≈ 0.302 µM); in assay [14] (setting [27]), ≤ 3 ng/mL.

Consider `C[C@H]1COc2c(N3CCN(C)CC3)c(F)cc3c(=O)c(C(=O)O)cn1c23` [LVFX, levofloxacin, reference compound], for which the minimal inhibitory concentration (MIC) in assay [1] (setting [15]) is 0.025 µg/mL (≈ 0.0692 µM); in [2] (setting [16]), 0.1 µg/mL (≈ 0.277 µM); in assay [3] (setting [17]), 0.1 µg/mL (≈ 0.277 µM); in assay [4] (setting [18]) it was > 6.25 µg/mL; in assay [5] (setting [19]), 0.39 µg/mL (≈ 1.08 µM); in assay [6] (setting [20]), 0.2 µg/mL (≈ 0.553 µM). The MIC in assay [7] (setting [17]) is 0.2 µg/mL (≈ 0.553 µM); in assay [8] (setting [21]) it was 0.1 µg/mL (≈ 0.277 µM); in assay [9] (setting [22]) it was 0.39 µg/mL (≈ 1.08 µM); in assay [10] (setting [23]) it was 0.78 µg/mL (≈ 2.16 µM); in assay [11] (setting [24]), 0.2 µg/mL (≈ 0.553 µM); in [12] (setting [25]), 0.13 µg/mL (≈ 0.36 µM). For the same compound, the MIC amounted to 0.78 µg/mL (≈ 2.16 µM) in assay [13] (setting [26]) and 13 ng/mL (≈ 0.036 µM) in assay [14] (setting [27]).

In the case of `Nc1c(F)c(N2CCC(C(N)C3CC3)C2)c(F)c2c1c(=O)c(C(=O)O)cn2C1CC1F` (stereo not drawn) [compound 5], the MIC result is “≦0.003 μg/ml” in assay [1]; 0.013 µg/mL (≈ 0.0298 µM) in assay [2]; 0.025 µg/mL (≈ 0.0573 µM) in assay [3]; 0.025 µg/mL (≈ 0.0573 µM) in assay [4]; “≦0.003 μg/ml” in assay [5]; “≦0.003 μg/ml” in assay [6]. Further, the MIC was 0.05 µg/mL (≈ 0.115 µM) in assay [7]; 0.025 µg/mL (≈ 0.0573 µM) in assay [8]; 0.05 µg/mL (≈ 0.115 µM) in assay [9]; 0.013 µg/mL (≈ 0.0298 µM) in assay [10]; “≦0.003 μg/ml” in assay [11]; 0.013 µg/mL (≈ 0.0298 µM) in assay [12]. Moreover, the MIC result in assay [13] and in [14] was “≦0.003 μg/ml” in each case.

On to `COc1c(N2CCC(C(N)C3CC3)C2)c(F)cc2c(=O)c(C(=O)O)cn(C3CC3F)c12` (stereo not drawn) [compound 6], for which the MIC was 0.006 µg/mL (≈ 0.0138 µM) in [1]; 0.05 µg/mL (≈ 0.115 µM) in [2]; 0.05 µg/mL (≈ 0.115 µM) in assay [3]; 0.1 µg/mL (≈ 0.231 µM) in assay [4]; 0.006 µg/mL (≈ 0.0138 µM) in assay [5]; “≦0.003 μg/ml” in assay [6]. For the same compound, the MIC in assay [7] was 0.1 µg/mL (≈ 0.231 µM); in assay [8], 0.1 µg/mL (≈ 0.231 µM); in assay [9], 0.2 µg/mL (≈ 0.461 µM); in assay [10] it was 0.025 µg/mL (≈ 0.0577 µM); in assay [11], “≦0.003 μg/ml”; in assay [12] it was 0.013 µg/mL (≈ 0.03 µM). The MIC result in assay [13] and in [14] was “≦0.003 μg/ml” throughout.

Turning to `Cc1c(N2CCC(C(N)C3CC3)C2)c(F)c(N)c2c(=O)c(C(=O)O)cn(C3CC3F)c12` (stereo not drawn) [compound 7], the MIC result in [1] was “≦0.003 μg/ml”; in [2] it was 0.025 µg/mL (≈ 0.0578 µM); in assay [3], 0.025 µg/mL (≈ 0.0578 µM); in assay [4] it was 0.025 µg/mL (≈ 0.0578 µM); in [5] it was “≦0.003 μg/ml”; in assay [6], “≦0.003 μg/ml”. The MIC in [7] was 0.05 µg/mL (≈ 0.116 µM); in assay [8], 0.05 µg/mL (≈ 0.116 µM); in assay [9], 0.05 µg/mL (≈ 0.116 µM); in assay [10] it was 0.013 µg/mL (≈ 0.0301 µM); in assay [11], “≦0.003 μg/ml”; in assay [12] it was 0.013 µg/mL (≈ 0.0301 µM). Further, the MIC result in [13] and in assay [14] was “≦0.003 μg/ml” each time.

Take `COc1c(N2CCC(C(N)C3CC3)C2)ccc2c(=O)c(C(=O)O)cn(C3CC3)c12` (stereo not drawn) [compound 8]: the MIC in [1] came to 0.1 µg/mL (≈ 0.252 µM); in [2] it was 0.1 µg/mL (≈ 0.252 µM); in [3] it was 0.2 µg/mL (≈ 0.503 µM); in assay [4], 0.2 µg/mL (≈ 0.503 µM); in assay [5], 0.025 µg/mL (≈ 0.0629 µM); in [6] it was 0.006 µg/mL (≈ 0.0151 µM). For the same compound, the MIC in assay [7] was determined as 0.39 µg/mL (≈ 0.981 µM); in assay [8] it was 0.2 µg/mL (≈ 0.503 µM); in assay [9] it was 0.2 µg/mL (≈ 0.503 µM); in assay [10], 0.05 µg/mL (≈ 0.126 µM); in assay [11], 0.013 µg/mL (≈ 0.0327 µM); in [12], 0.05 µg/mL (≈ 0.126 µM). Moreover, the MIC in [13] was 0.006 µg/mL (≈ 0.0151 µM); in assay [14], 6 ng/mL (≈ 0.0151 µM).
